According to US20240132463A1, “SUBSTITUTED N-(2-(2,6-DIOXOPIPERIDIN-3-YL)-1,3-DIOXOISOINDOLIN-5-YL)ARYLSULFONAMIDE ANALOGS AS MODULATORS OF CEREBLON PROTEIN” (ST. JUDE CHILDREN'S RESEARCH HOSPITAL, INC., priority 2020, published 2024):
Where two headings read alike, the source gives them in different places.

Columns and labels:
[1] = target: GSPT1 HiBiT tag protein (Homo sapiens (Human), UniProt P15170+Q96SW2); assay: hGSPT1 HiBiT assay; format: cell-based
Experimental: hGSPT1 HiBiT cell line. HEK293_hGSPT1_HiBiT tagged cells were generated using CRISPR-Cas12a technology. Briefly, ˜400,000 HEK293 cells were transiently co-transfecting with precomplexed ribonuclear proteins (RNPs) consisting of […] of crRNA (IDT), 62 pmol of Cas12a protein (IDT), 3 ug of ssODN donor (IDT; AltR™ modifications), 78 pmol of electroporation enhancer (IDT), and 200 ng of pMaxGFP (Lonza). The transfection was performed via nucleofection (Lonza, 4D-Nucleofector™ X-unit) using solution P3 and program CM-130 in a small (20 ul) cuvette according to the manufacturer's recommended protocol. Five days post-nucleofection, cells were single cell sorted for GFP+(transfected) cells by FACs in 96-well plates and clonally selected. Clones were screened and verified for the desired modification via targeted deep sequencing using gene specific primers with partial Illumina adapter overhangs as previously described.^58 In brief, clonal cell pellets were harvested, lysed and used to generate gene specific amplicons with partial Illumina adapters in PCR #1. Amplicons were indexed in PCR #2 and pooled with other targeted amplicons for other loci to create sequence diversity. Additionally, 10% PhiX Sequencing Control V3 (Illumina) was added to the pooled amplicon library prior to running the sample on an Miseq Sequencer System (Illumina) to generate paired 2×250 bp reads. […] Editing construct sequences and screening primers are listed below in Table 4.
hGSPT1 HiBiT assay. […] After 4 hrs incubation, the level of GSPT1 HiBiT tag protein was evaluated using Nano-Glo® HiBiT Lytic Detection System (Promega) according to the manufacturer's instruction.

[2] = tested on: MDCKII-MDR1 cells; assay: MDCKII-MDR1 permeability assay; format: in vitro ADME; conditions: permeability in MDCK-MDR1 cells
Experimental: High throughput […]1 permeability was performed in the Transwell® 0.4 μm polycarbonate membrane 96-well system with modified methods (Refs. 38-39). […]1 cells were maintained at 37° C. in a humidified incubator with an atmosphere of 5% CO2. The cells were cultured in 75 cm^2 flasks with Dulbecco's Modified Eagle's Medium (DMEM) containing 10% fetal bovine serum (FBS), 1% non-essential amino acids (NEAA), 100 units/ml of penicillin, and 100 μg/ml of streptomycin. The […]1 cells were seeded onto inserts at a density of 2×10^4 and 1×10^4 cells/insert separately. The medium in the wells was exchanged each other day, and the trans epithelial electrical resistance (TEER) value was measured using an epithelial volt-ohm meter (Millipore, Billerica, Massachusetts). […] For transport experiments, each cultured monolayer on the 96-well plate was washed twice with a transport buffer (HBSS/25 mM HEPES, pH 7.4). The permeability assay was initiated by the addition of each compound solution (10 μmol/L) into inserts (apical side, A) or receivers (basolateral side, B). The MDCKII-MDR1 cell monolayers were incubated for 1 hour at 37° C. Fractions were collected from receivers (if apical to basal permeability) or inserts (if basal to apical permeability), and concentrations were assessed by UPLC/MS (Waters; Milford, MA). All compounds were tested in triplicates. The A→B (or B→A) apparent permeability coefficients (Papp) of each compound were calculated using the equation, Papp=dQ/dt×1/AC0, where dQ/dt equals the flux of a drug across the monolayer, A equals the total insert well surface area, and C0 is the initial concentration of substrate in the donor compartment. The efflux ratio was determined by dividing the Papp in the B-A direction by the Papp in the A-B direction.

[3] = Aqueous solubility assay; format: physicochemical; conditions: aqueous solubility at pH = 7.4, triplicate
Experimental: Solubility assays were carried out on a Biomek FX lab automation workstation (Beckman Coulter, Inc., Fullerton, CA) using μSOL Evolution software (pION Inc., Woburn, MA). 10 μL of 10 mM compound stock (in DMSO) was added to 190 μL 1-propanol to make a reference stock plate. 5 μL from this reference stock plate were mixed with 70 μL 1-propanol and 75 μL citrate phosphate-buffered saline (PBS;isotonic) to make the reference plate, and the UV spectrum (250-500 nm) of the reference plate was read. 6 μL of 10 mM test compound stock was added to 594 μL buffer in a 96-well storage plate and mixed. The storage plate was sealed and incubated at RT for 18 h. The suspension was then filtered through a 96-well filter plate (pION Inc., Woburn, MA). 75 μL of filtrate was mixed with 75 μL 1-propanol to make the sample plate, and the UV spectrum of the sample plate was read. Calculations were carried out with μSOL Evolution software based on the area under the curve (AUC) of the UV spectrum of the sample and reference plates. All compounds were tested in triplicate.

[4] = target: 6×His-CRBN-DDB1 protein (Homo sapiens (Human), UniProt Q96SW2); assay: CRBN fluorescence polarization assay; format: binding
Chain of 6×His-CRBN-DDB1 protein (Q96SW2 whole entry): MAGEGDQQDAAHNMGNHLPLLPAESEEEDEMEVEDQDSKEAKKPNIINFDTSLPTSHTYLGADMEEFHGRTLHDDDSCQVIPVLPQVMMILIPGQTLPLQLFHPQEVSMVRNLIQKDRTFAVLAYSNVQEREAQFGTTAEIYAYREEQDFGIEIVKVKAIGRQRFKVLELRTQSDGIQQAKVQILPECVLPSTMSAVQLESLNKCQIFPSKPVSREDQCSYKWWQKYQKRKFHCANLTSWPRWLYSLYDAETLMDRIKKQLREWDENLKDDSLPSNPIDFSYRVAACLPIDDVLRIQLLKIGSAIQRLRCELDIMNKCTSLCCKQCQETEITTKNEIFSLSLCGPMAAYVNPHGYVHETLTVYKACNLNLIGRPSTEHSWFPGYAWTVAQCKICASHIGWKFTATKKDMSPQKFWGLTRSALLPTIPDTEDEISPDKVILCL
Chain of 6×His-CRBN-DDB1 protein (Q16531 whole entry partner): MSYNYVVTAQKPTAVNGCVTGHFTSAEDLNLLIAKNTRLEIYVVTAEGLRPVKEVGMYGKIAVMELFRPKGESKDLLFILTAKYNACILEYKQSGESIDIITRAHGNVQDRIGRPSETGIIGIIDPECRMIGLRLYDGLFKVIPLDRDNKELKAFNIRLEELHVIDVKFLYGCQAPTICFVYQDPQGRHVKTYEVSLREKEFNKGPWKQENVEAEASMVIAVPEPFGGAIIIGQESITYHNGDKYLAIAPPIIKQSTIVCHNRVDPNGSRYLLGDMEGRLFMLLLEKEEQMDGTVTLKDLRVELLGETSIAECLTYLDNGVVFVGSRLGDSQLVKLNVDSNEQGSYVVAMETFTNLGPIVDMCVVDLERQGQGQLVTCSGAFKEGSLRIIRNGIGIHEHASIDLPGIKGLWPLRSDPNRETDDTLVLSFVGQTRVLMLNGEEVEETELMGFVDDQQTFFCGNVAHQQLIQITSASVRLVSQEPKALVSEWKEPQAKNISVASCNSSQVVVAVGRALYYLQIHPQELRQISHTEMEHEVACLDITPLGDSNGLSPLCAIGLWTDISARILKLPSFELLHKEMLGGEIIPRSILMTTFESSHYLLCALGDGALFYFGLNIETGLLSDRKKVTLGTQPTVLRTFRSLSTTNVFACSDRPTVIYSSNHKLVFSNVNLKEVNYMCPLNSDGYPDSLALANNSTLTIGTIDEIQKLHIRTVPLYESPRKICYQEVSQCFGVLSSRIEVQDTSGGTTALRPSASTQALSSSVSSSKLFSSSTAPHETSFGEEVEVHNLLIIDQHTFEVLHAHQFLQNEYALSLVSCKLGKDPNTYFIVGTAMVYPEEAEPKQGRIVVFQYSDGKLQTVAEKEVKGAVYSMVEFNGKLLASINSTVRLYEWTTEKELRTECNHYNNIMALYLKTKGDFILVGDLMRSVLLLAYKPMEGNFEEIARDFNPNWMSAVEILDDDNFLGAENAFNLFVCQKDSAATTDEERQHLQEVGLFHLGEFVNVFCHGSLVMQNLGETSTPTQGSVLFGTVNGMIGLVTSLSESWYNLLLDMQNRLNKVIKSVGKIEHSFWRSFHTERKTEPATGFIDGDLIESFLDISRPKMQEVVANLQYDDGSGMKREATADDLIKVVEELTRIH
Experimental: 6×His-CRBN-DDB1 protein (200 nM) and Cy5-O-Len probe (30 nM) were combined in 20 mM HEPES pH 7, 150 mM NaCl, 0.005% Tween-20 assay buffer. […] The plates were incubated in the dark for 1 hour at room temperature and then read on an Envision plate reader (PerkinElmer, Massachusetts, USA).

[5] = tested on: MV4-11 cells; assay: MV-4-11 cell viability assay; format: cell-based, human; conditions: 72 hours, Cell Titer Glo
Experimental: MV-4-11 cell line was purchased from the American Type Culture Collection (ATCC, Manassas, VA). The cells were cultured according to recommendations in IMDM cell culture media (ATCC). Exponentially growing MV-4-11 cells were plated at 1,000 cells per well in Corning 8804BC white 384-well assay plates and incubated overnight at 37° C. in a humidified 5% CO2 incubator. Compounds were transferred to the assay plate from a dose-response plate using a Pintool on a Biomek FXP Laboratory Automation Workstation (Beckman Coulter). Cytotoxicity was determined following 72 hours of incubation using Promega Cell Titer Glo reagent according to the manufacturer's recommendation. Luminescence was measured on an Envision plate reader (Perkin-Elmer).
Compounds were screened in human cancer cell lines and each cell line was cultured in the complete medium recommended by the vendor and seeded in Corning 8804BC white 384-well assay plates at density of 1,000, 1,000, 1,000, 1,500 and 7,500 cells per well, for MV4-11, HD-MB03, MB004, MB002 and MHH-CALL4 cells respectively. After overnight incubation at 37° C. in a humidified 5% CO2 incubator, cells were treated with compounds in dose-response format using a Pintool on a Biomek FXP Laboratory Automation Workstation (Beckman Coulter). […] After 72 h incubation, cell proliferation was assessed using Cell Titer-Glo (CTG) luminescent cell viability assay (Promega) according to the manufacturer's instruction. Luminescence signal was measured using an Envision plate reader (Perkin-Elmer).

[6] = target: IKZF1 (Homo sapiens (Human), UniProt Q13422+Q96SW2); assay: IKZF1 degradation by immunoblot in MV4-11 cells; format: cell-based; conditions: MV4-11 cells; for DC50: read-out: IKZF1 DC50, 24 h treatment
Experimental: MV4-11 cells were seeded in 6-well plates (1×10^6 cells per well). After overnight incubation, the cells were treated with indicated concentrations for specific timepoints. […] After blocking the membrane with LI-COR TBS blocking buffer and incubation in primary antibody overnight, the corresponding protein signals were detected using IRDye secondary antibodies and Odyssey Imaging System. Image Studio Lite Ver 5.2 was used for blot quantification. […] IRDye® 800CW Goat anti-Mouse IgG Secondary Antibody and IRDye® 68ORD Goat anti-Rabbit IgG Secondary Antibody were used as secondary antibodies.

[7] = fluorescence polarization, Cy5-O-Len probe, read-out: CRBN IC50
[8] = HEK293 hGSPT1 HiBiT cells, 4 hrs incubation; read-out: GSPT1 HiBit EC50
[9] = cereblon binding, class symbols, read-out: CRBN FP IC50

Chain of GSPT1 HiBiT tag protein (P15170 whole entry): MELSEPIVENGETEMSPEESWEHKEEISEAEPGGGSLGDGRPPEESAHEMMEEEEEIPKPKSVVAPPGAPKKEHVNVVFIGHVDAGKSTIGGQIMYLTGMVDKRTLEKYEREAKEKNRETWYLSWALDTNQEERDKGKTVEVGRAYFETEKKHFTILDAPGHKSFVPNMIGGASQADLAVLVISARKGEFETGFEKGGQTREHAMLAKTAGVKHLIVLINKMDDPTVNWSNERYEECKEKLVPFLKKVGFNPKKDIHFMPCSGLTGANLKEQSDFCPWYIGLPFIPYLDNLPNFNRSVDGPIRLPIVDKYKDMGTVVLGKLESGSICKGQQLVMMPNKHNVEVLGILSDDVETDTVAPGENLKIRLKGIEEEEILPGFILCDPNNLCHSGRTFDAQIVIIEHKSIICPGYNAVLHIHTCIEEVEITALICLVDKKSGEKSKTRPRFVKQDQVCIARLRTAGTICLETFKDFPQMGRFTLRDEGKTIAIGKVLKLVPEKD
Chain of GSPT1 HiBiT tag protein (Q96SW2 whole entry): as the sequence (Q96SW2 whole entry) above
Chain of GSPT1 HiBiT tag protein (Q16531 whole entry partner): as the sequence (Q16531 whole entry partner) above

Q: With O=C1CCC(N2C(=O)c3ccc(NS(=O)(=O)c4ccccc4)cc3C2=O)C(=O)N1 (centres unmarked) [Compound 20, N-(2-(2,6-dioxopiperidin-3-yl)-1,3-dioxoisoindolin-5-yl)benzenesulfonamide] as the compound, how does the DC50 ([1]; read-out: GSPT1 HiBit EC50; HEK293 hGSPT1 HiBiT cells, 4 hrs incubation) read?
A: > 10 µM

Q: What about the Papp [2] of the same compound?
A: 36 nm/s

Q: And the Sol. [3]?
A: 71 µM

Q: What about the IC50 ([4]; CRBN FP IC50, cereblon binding, class symbols) of the same compound?
A: < 1 µM

Q: And the IC50 [4, 7]?
A: 0.072 µM

Q: And the “MV4-11 EC50” value [5]?
A: inactive

Q: Which results are given for O=C1CCC(N2C(=O)c3ccc(NS(=O)(=O)c4ccc(Cl)c(Cl)c4)cc3C2=O)C(=O)N1 (centres unmarked) [Compound 71, 3,4-dichloro-N-(2-(2,6-dioxopiperidin-3-yl)-1,3-dioxoisoindolin-5-yl)benzenesulfonamide]?
A: DC50 [1, 8]: > 10 µM; IC50 [4, 9]: < 1 µM

Q: Which DC50 [1, 8] does the source give for O=C1CCC(N2C(=O)c3ccc(NS(=O)(=O)c4ccsc4)cc3C2=O)C(=O)N1 (centres unmarked) [Compound 83, N-(2-(2,6-dioxopiperidin-3-yl)-1,3-dioxoisoindolin-5-yl)thiophene-3-sulfonamide] here?
A: > 10 µM

Q: And the IC50 [4, 9]?
A: < 1 µM

Q: With O=C1CCC(N2C(=O)c3ccc(NS(=O)(=O)Cc4ccccc4)cc3C2=O)C(=O)N1 (centres unmarked) [Compound 9, N-(2-(2,6-dioxopiperidin-3-yl)-1,3-dioxoisoindolin-5-yl)-1-phenylmethanesulfonamide] as the compound, how does the DC50 [1, 8] read?
A: > 10 µM

Q: What about the IC50 [4, 9] of the same compound?
A: 1 to 10 µM

Q: For O=C1CCC(N2C(=O)c3ccc(NS(=O)(=O)c4cccs4)cc3C2=O)C(=O)N1 (centres unmarked) [Compound 18, N-(2-(2,6-dioxopiperidin-3-yl)-1,3-dioxoisoindolin-5-yl)thiophene-2-sulfonamide], which DC50 [1, 8] is on record?
A: > 10 µM

Q: And the IC50 [4, 9]?
A: < 1 µM

Q: Which DC50 [1, 8] does the source give for Cc1ccccc1CS(=O)(=O)Nc1ccc2c(c1)C(=O)N(C1CCC(=O)NC1=O)C2=O (centres unmarked) [Compound 90, N-(2-(2,6-dioxopiperidin-3-yl)-1,3-dioxoisoindolin-5-yl)-1-(o-tolyt)methanesulfonamide] here?
A: > 10 µM

Q: What about the IC50 [4, 9] of the same compound?
A: 1 to 10 µM

Q: Which DC50 [1, 8] does the source give for O=C1CCC(N2C(=O)c3ccc(NS(=O)(=O)c4cccc(F)c4)cc3C2=O)C(=O)N1 (centres unmarked) [Compound 72, N-(2-(2,6-dioxopiperidin-3-yl)-1,3-dioxoisoindolin-5-yl)-3-fluorobenzenesulfonamide] here?
A: > 10 µM

Q: And the IC50 [4, 9]?
A: < 1 µM

Q: For O=C1CCC(N2C(=O)c3ccc(NS(=O)(=O)Cc4ccc(F)cc4)cc3C2=O)C(=O)N1 (centres unmarked) [Compound 89, N-(2-(2,6-dioxopiperidin-3-yl)-1,3-dioxoisoindolin-5-yl)-1-(4-fluorophenyl)methanesulfonamide], which DC50 [1, 8] is on record?
A: > 10 µM

Q: And the IC50 [4, 9]?
A: < 1 µM

Q: What does the source list for O=C1CCC(N2C(=O)c3ccc(NS(=O)(=O)c4cccc(C(F)(F)F)c4)cc3C2=O)C(=O)N1 (centres unmarked) [Compound 4, N-(2-(2,6-dioxopiperidin-3-yl)-1,3-dioxoisoindolin-5-yl)-3-(trifluoromethyl)benzenesulfonamide]?
A: DC50 [1, 8]: > 10 µM; IC50 [4, 9]: < 1 µM

Q: Which results are given for Cc1ccc(F)cc1S(=O)(=O)Nc1ccc2c(c1)C(=O)N(C1CCC(=O)NC1=O)C2=O (centres unmarked) [Compound 75, N-(2-(2,6-dioxopiperidin-3-yl)-1,3-dioxoisoindolin-5-yl)-5-fluoro-2-methylbenzenesulfonamide]?
A: DC50 [1, 8]: > 10 µM; IC50 [4, 9]: < 1 µM

Q: Which results are given for Cc1ccc(F)c(S(=O)(=O)Nc2ccc3c(c2)C(=O)N(C2CCC(=O)NC2=O)C3=O)c1 (centres unmarked) [Compound 10, N-(2-(2,6-dioxopiperidin-3-yl)-1,3-dioxoisoindolin-5-yl)-2-fluoro-5-methylbenzenesulfonamide]?
A: DC50 [1, 8]: > 10 µM; IC50 [4, 9]: < 1 µM

Q: Which results are given for O=C1CCC(N2C(=O)c3ccc(NS(=O)(=O)c4ccccc4-c4ccccc4)cc3C2=O)C(=O)N1 (centres unmarked) [Compound 81, N-(2-(2,6-dioxopiperidin-3-yl)-1,3-dioxoisoindolin-5-yl)-[1,1′-biphenyl]-2-sulfonamide]?
A: DC50 [1, 8]: > 10 µM; IC50 [4, 9]: < 1 µM

Q: What does the source list for O=C1CCC(N2Cc3cc(CNC(=O)C(F)(F)c4ccc(Cl)cc4)ccc3C2=O)C(=O)N1 (centres unmarked) [CC-90009, 2-(4-chlorophenyl)-N-((2-(2,6-dioxopiperidin-3-yl)-1-oxoisoindolin-5-yl)methyl)-2,2-difluoroacetamide, reference compound]?
A: Papp [2]: 49 nm/s; Sol. [3]: 77 µM; Dmax at 10 µM ([6]; 4 hours, at 10 μM): 55%; DC50 [6]: 0.01 µM; DC50 ([6]; listed as CC90009): 0.0099 µM; EC50 ([5]; Homo sapiens): 0.062 µM

Q: Which results are given for Cc1ccc(S(=O)(=O)Nc2ccc3c(c2)C(=O)N(C2CCC(=O)NC2=O)C3=O)cc1Cl (centres unmarked) [Compound 7, 3-chloro-N-(2-(2,6-dioxopiperidin-3-yl)-1,3-dioxoisoindolin-5-yl)-4-methylbenzenesulfonamide]?
A: DC50 [1, 8]: > 10 µM; Papp [2]: 46 nm/s; IC50 [4, 9]: < 1 µM; IC50 [4, 7]: 0.013 µM

Q: For O=C1CCC(N2C(=O)c3ccc(NS(=O)(=O)c4ccc(F)c(Cl)c4)cc3C2=O)C(=O)N1 (centres unmarked) [Compound 17, 3-chloro-N-(2-(2,6-dioxopiperidin-3-yl)-1,3-dioxoisoindolin-5-yl)-4-fluorobenzenesulfonamide], which DC50 [1, 8] is on record?
A: > 10 µM

Q: And the IC50 [4, 9]?
A: < 1 µM

Q: Which results are given for Cc1cc(S(=O)(=O)Nc2ccc3c(c2)C(=O)N(C2CCC(=O)NC2=O)C3=O)c(C)cc1Cl (centres unmarked) [Compound 77, 4-chloro-N-(2-(2,6-dioxopiperidin-3-yl)-1,3-dioxoisoindolin-5-yl)-2,5-dimethylbenzenesulfonamide]?
A: DC50 [1, 8]: < 1 µM; IC50 [4, 9]: < 1 µM

Q: With O=C1CCC(N2C(=O)c3ccc(NS(=O)(=O)c4ccccc4F)cc3C2=O)C(=O)N1 (centres unmarked) [Compound 82, N-(2-(2,6-dioxopiperidin-3-yl)-1,3-dioxoisoindolin-5-yl)-2-fluorobenzenesulfonamide] as the compound, how does the DC50 [1, 8] read?
A: > 10 µM

Q: And the IC50 [4, 9]?
A: < 1 µM
